Source: patent US8853274B1, “Compositions and methods for targeting glioblastomas cells” (Vanderbilt University, priority 2011, dated 2014)

Legend:
T4302 CD133+ cells = assay: Caspase 3/7 activation (apoptosis); format: cell-based, human; conditions: 100 nM, day 3
Method: (A) T4302 CD133+ GBM stem cells were enriched from freshly collected subcutaneous xenograft tumors, cultured in stem cell media. Cells were left unirradiated or irradiated at 3 Gy. The relative mRNA levels of Hes2 were determined by quantitative real-time PCR at the time points as indicated. (B) T4302 CD133+ cells were pre-treated with vehicle (DMSO), 2 μM DAPT or 0.5 μM L685,458 for 4 hours and irradiated as indicated. Cells were then plated to form neurospheres. Fourteen days after plating, neurospheres containing more than 50 cells were scored. To determine the surviving fractions, the number of neurosphere at each radiation dose was normalized to that of the corresponding sham-irradiated group. (C) T4302 CD133+ cells were treated with GSIs±radiation as indicated. Relative caspase 3/7 activities were determined by normalizing caspase activities to the corresponding cell numbers. (D), (E) T4302 CD133+ cells were infected with lentivirus directing expression of non-targeting shRNA or shRNAs specific to Notch1 or Notch2 (KD-Notch1 or KD-Notch2), and selected with puromycin. Relative caspase 3/7 activities and clonogenic survival were determined as described above. (F) T4302 CD133+ cells were infected with control lentivirus or lentivirus directing expression of NICD2. Clonogenic survival was determined as described above. *: p<0.05 by Student's t-test; #: p<0.01 by one-way ANOVA.
(A, B) T4302 CD133+ cells were treated with 100 nM RO4929097 (GSI) and/or 100 nM tipifarnib (FTI) for 4 hours prior to 3 Gy radiation. (A) Cell growth on day 5 and (B) caspase 3/7 activation on day 3 were determined as described in FIG. 4. #: p<0.001 by one-way ANOVA, combo vs. single agents. (C) The effects of GSIs and FTI against growth of T4302 CD133− cells were determined as described in panel A. (D, E) T4302 CD133+ cells were treated with GSI, FTI, or a 1:1 mixture at different concentrations (ranging from 3000 nM to ˜0.5 nM, 1:3 dilution)±3 Gy radiation. Cell viability was determined at 5 days after treatment in comparison to vehicle-treated groups. […] (F) T4302 CD 133+ cells were treated by GSI±FTI with a 2-fold dilution. Neurospheres were countered on day 10, and normalized to the vehicle-treated group.

cleaved Notch1 = assay: IHC staining for cleaved Notch1 in intracranial tumors; format: in vivo, Mice; conditions: oral 30 mg/kg/day, 7 days
Method: (A, B) T4302 CD133+ cells were treated with 100 nM GSI±FTI for 48 hours and lysed in RIPA buffer. Mice bearing intracranial T4302 tumors were orally treated with 30 mg/kg/day GSI once a day (q.d.)±100 mg/kg/day FTI twice a day (b.i.d.) for 7 days. Brains were resected and homogenized in RIPA buffer. All lysates were blotted with an antibody specific to prelamin A. (B) Additional brains were fixed and resected for IHC staining for cleaved Notch1. (C) T4302 CD133+ cells were infected with lentivirus expressing firefly luciferase and selected with puromycin for two days. Athymic nude mice were intracranially implanted with 5,000 cells, maintained for 10 days, and treated with GSI±FTI for 20 days as described above. In a separated experiment, animals were treated by the same protocol, except they were given 2 doses of 4 Gy X-ray irradiation on day 11 and day 12, 4 hours after drug administration. These mice were on drugs for 30 days. The median survival was calculated by the GraphPad Prism 5 software. (D) Animals in the unirradiated experiment were tracked for their tumor progression by bioluminescence imaging. The Y axis is set in a log scale. (E,F) The survival curves of these two experiments are shown.

CD133+ GBM stem cells = assay: Growth inhibition within 5 days, panel of glioblastoma xenograft samples; format: cell-based, human; conditions: 5-day period; in combination with 3 Gy radiation
Method: CD133+ cells were derived from multiple glioblastoma xenograft samples as indicated. The growth inhibitory effects by GSI and/or FTIs were determined as described in FIG. 5.
Therefore, effective killing of GBM stem cells may delay or even prevent tumor recurrence. […] In combination with radiation, GSIs or FTIs alone reduced cell numbers by ˜75%.

`CC(C)(C(=O)NCC(F)(F)C(F)(F)F)C(=O)N[C@@H]1C(=O)Nc2ccccc2-c2ccccc21` [RO4929097] was tested, and the “caspase 3/7 activation, in words” value (T4302 CD133+ cells; absence of radiation) was “without apparent activation of apoptosis”, the “increase of caspase 3/7 activity compared with the sham-treated group” value (T4302 CD133+ cells; following 3-Gy radiation) was “approximately 2 fold” and the “levels of cleaved Notch1 in intracranial tumors (IHC)” value (cleaved Notch1) was “decreased the levels of cleaved Notch1”. The “growth inhibition / reduction of cell numbers” value (CD133+ GBM stem cells) was ~75%.
